Experimental data as given in patent US20130129732A1, “METHOD FOR […]” (LANXESS Deutschland GmbH, priority 2009, published 2013).

Key:
Format in all cases: cell-based
Saccharomyces cerivisiae = assay: Microbial reduction (MLC) in clear apple juice seeded with Saccharomyces cerivisiae, preservative with PEF; conditions: 10^5 CFU/ml, PEF 5 kV/cm, 3-6 J/ml, after 24 h
From the text: (§1) In the examples hereinafter, the Elcrack® apparatus of the Deutsche Institute für Lebensmitteltechnik e. V. [German Institute for food technology] was used for the PEF treatment.
(§2) The treatment proceeded at differing field strengths and energy densities, wherein the pulse width was 20 μs and the pulse frequency 400 Hz.
(§3) In the examples hereinafter, in each case clear apple juice was admixed with stirring by means of a propeller agitator with a microbial or spore suspension, then after approximately 3 minutes, optionally further antimicrobially active substances, and thereafter after approximately 2 minutes, DMDC. The microbial or spore suspension was added in such a manner that a defined amount of cells, generally 10^3 to 10^5 CFU/ml were present in the apple juice.
(§4) The apple juice was then treated by PEF (using the above-described Elcrack® apparatus). As further microbially active substances, sodium benzoate or potassium sorbate were used.
(§5) As a measure for microbial reduction, the median logarithmic cell count reduction (MLC) was determined. In this case the logarithm of the surviving cell count is subtracted from the logarithm of the initial cell count. The higher the MLC value, the higher the microbial reduction and the better the activity is.
(§6) A: Bacillilus subtilis DSM 347 (ATCC 6633) B: Penicillium roqueforti DSM 1079 (ATCC 34908) C: Lactobacillus frigidus DSM 6235 D: Saccharomyces […] DSM 70449 (ATCC 18824)

Lactobacillus frigidus = assay: Microbial reduction (MLC) in clear apple juice seeded with Lactobacillus frigidus, preservative with or without PEF; conditions: 10^5 CFU/ml, after 1 week
From the text: as §1, §2, §3, §4, §5, §6

Bacillus subtilis = assay: Microbial reduction (MLC) in clear apple juice seeded with Bacillus subtilis, preservative with or without PEF; conditions: 10^3 CFU/ml
From the text: as §1, §2, §3, §4, §5, §6

Penicillium roqueforti = assay: Microbial reduction (MLC) in clear apple juice seeded with Penicillium roqueforti, preservative with or without PEF; conditions: 10^5 CFU/ml
From the text: as §1, §2, §3, §4, §5, §6

[1] = PEF 30 kV/cm, 94-104 J/ml, after 24 h
[2] = PEF 35 kV/cm, 110-116 J/ml, after 24 h

SMILES: O=C([O-])c1ccccc1.[Na+] [VD2, sodium benzoate]
- MLC (median logarithmic cell count reduction) (Saccharomyces cerivisiae): none; heavy

SMILES: COC(=O)OC(=O)OC [VC1, dimethyl dicarbonate]
- MLC (median logarithmic cell count reduction) (Lactobacillus frigidus; no PEF, 21° C.): 2.3/1 week

SMILES: C/C=C/C=C/C(=O)[O-].[K+] [VD3, potassium sorbate]
- MLC (median logarithmic cell count reduction) (Saccharomyces cerivisiae): none; heavy

SMILES: COC(=O)OC(=O)OC [Example A5, dimethyl dicarbonate]
- MLC (median logarithmic cell count reduction) (Bacillus subtilis; PEF 35 kV/cm, 111 J/ml, after 1 week): 3.0/1 week

SMILES: C/C=C/C=C/C(=O)[O-].[K+] [VB4, potassium sorbate]
- MLC (median logarithmic cell count reduction) (Penicillium roqueforti; [1]): none; heavy

SMILES: O=C([O-])c1ccccc1.[Na+] [VC2, sodium benzoate]
- MLC (median logarithmic cell count reduction) (Lactobacillus frigidus; PEF 30 kV/cm, 88-93 J/ml): 2.8/1 week

SMILES: C/C=C/C=C/C(=O)[O-].[K+] [VA2, potassium sorbate]
- MLC (median logarithmic cell count reduction) (Bacillus subtilis; [2]): 0.5/24 h

SMILES: COC(=O)OC(=O)OC [Example C1, dimethyl dicarbonate]
- MLC (median logarithmic cell count reduction) (Lactobacillus frigidus; PEF 30 kV/cm, 88-93 J/ml): 3.6/1 week

SMILES: COC(=O)OC(=O)OC [Example A4, dimethyl dicarbonate]
- MLC (median logarithmic cell count reduction) (Bacillus subtilis; PEF 15 kV/cm, 23 J/ml, after 24 h): 1.4/24 h

SMILES: O=C([O-])c1ccccc1.[Na+] [VB3, sodium benzoate]
- MLC (median logarithmic cell count reduction) (Penicillium roqueforti; [1]): none; heavy

SMILES: COC(=O)OC(=O)OC [Example A1, dimethyl dicarbonate]
- MLC (median logarithmic cell count reduction) (Bacillus subtilis; [2]): 2.2/24 h

SMILES: COC(=O)OC(=O)OC [Example D1, dimethyl dicarbonate]
- MLC (median logarithmic cell count reduction) (Saccharomyces cerivisiae): min 7/24 h

SMILES: COC(=O)OC(=O)OC [VB1, dimethyl dicarbonate]
- MLC (median logarithmic cell count reduction) (Penicillium roqueforti; no PEF, 21° C., after 24 h): 6.4/24 h

SMILES: C/C=C/C=C/C(=O)[O-].[K+] [VC3, potassium sorbate]
- MLC (median logarithmic cell count reduction) (Lactobacillus frigidus; PEF 30 kV/cm, 88-93 J/ml): 3.0/1 week

SMILES: COC(=O)OC(=O)OC [Example B5, dimethyl dicarbonate]
- MLC (median logarithmic cell count reduction) (Penicillium roqueforti; PEF 30 kV/cm, 94-104 J/ml, after 4 weeks): at least 7/4

SMILES: O=C([O-])c1ccccc1.[Na+] [VA1, sodium benzoate]
- MLC (median logarithmic cell count reduction) (Bacillus subtilis; [2]): 2.0/24 h
